Laboratory results: patent US11434242B2, “Dopamine-b-hydroxylase inhibitors” (BIAL-PORTELA & Cª, S.A., priority 2017, dated 2022)

Target: T1, Dopamine beta hydroxylase (Homo sapiens, UniProt P09172)
T1 construct: 125 μl of plasma; tissue Instituto Português do Sangue Transplantação; host or cells: human plasma from healthy donors
T1 sequence (P09172 40-617 limits assumed): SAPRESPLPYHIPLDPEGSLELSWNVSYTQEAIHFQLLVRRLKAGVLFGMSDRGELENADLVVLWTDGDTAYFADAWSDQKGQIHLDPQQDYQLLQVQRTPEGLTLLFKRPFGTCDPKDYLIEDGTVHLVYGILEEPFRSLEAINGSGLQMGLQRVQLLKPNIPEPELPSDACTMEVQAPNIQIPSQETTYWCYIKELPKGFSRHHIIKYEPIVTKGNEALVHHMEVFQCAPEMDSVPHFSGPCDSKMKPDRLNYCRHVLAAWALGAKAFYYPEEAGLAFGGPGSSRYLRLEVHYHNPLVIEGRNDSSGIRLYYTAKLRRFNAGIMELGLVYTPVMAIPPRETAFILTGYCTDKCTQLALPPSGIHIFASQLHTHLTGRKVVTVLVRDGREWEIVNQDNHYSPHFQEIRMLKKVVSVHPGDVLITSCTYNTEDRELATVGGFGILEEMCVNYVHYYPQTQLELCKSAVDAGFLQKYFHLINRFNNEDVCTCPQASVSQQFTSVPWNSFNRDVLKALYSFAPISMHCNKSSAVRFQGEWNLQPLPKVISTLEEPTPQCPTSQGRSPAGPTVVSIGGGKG
Test: Dopamine beta hydroxylase activity in human plasma
Type: biochemical
Details: for Plasma (0.01 μM), activity in % of control: inhibitor 0.01 μM; for Plasma (0.1 μM), activity in % of control: inhibitor 0.1 μM
In short: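 Healthy-donor human plasma pre-incubated 10 min at 37° C with compound at final 10, 100 or 1000 nM in pH 5.0 acetate buffer with ascorbate, fumarate, pargyline, N-ethylmaleimide, catalase and copper sulfate. Tyramine substrate then added for 45 min; octopamine formed was isolated by SCX cartridge, periodate-converted and read at 330 nm; activity given as % control.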

Row | Compound | Plasma (0.01 μM), activity in % of control | Plasma (0.1 μM), activity in % of control
1 | Cl.Cn1c(CC(=O)N2CCNCC2)c2n(c1=S)C[C@@]1(c3cc(Br)ccc3F)C[C@@H]21 [Example 321, 2-((5aS,6aR)-5a-(5-bromo-2-fluorophenyl)-2-methyl-3-thioxo-2,3,5,5a,6,6a-hexahydrocyclopropa[3,4]pyrrolo[1,2-c]imidazol-1-yl)-1-(piperazin-1-yl)ethan-1-one Hydrochloride] | 89.7 % of control | 13.3 % of control
2 | Cl.Cn1c(CCNC2CCCC2)c2n(c1=S)C[C@@]1(c3cc(Cl)ccc3F)C[C@@H]21 [Example 322, (5aS,6aR)-5a-(5-chloro-2-fluorophenyl)-1-(2-(cyclopentylamino)ethyl)-2-methyl-5,5a,6,6a-tetrahydrocyclopropa[3,4]pyrrolo[1,2-c]imidazole-3(2H)-thione Hydrochloride] | 62.3 % of control | 43.4 % of control
3 | Cn1c(CC(=O)N2CCNC(=O)C2)c2n(c1=S)C[C@@H](c1c(F)c(F)cc(F)c1F)C2 [Example 323, (R)-4-(2-(2-methyl-6-(2,3,5,6-tetrafluorophenyl)-3-thioxo-2,5,6,7-tetrahydro-3H-pyrrolo[1,2-c]imidazol-1-yl)acetyl)piperazin-2-one] | 86.3 % of control | 43.3 % of control
4 | CN1CCN(C(=O)Cc2c3n(c(=S)n2C)C[C@@H](c2c(F)c(F)cc(F)c2F)C3)CC1=O [Example 324, (R)-1-methyl-4-(2-(2-methyl-6-(2,3,5,6-tetrafluorophenyl)-3-thioxo-2,5,6,7-tetrahydro-3H-pyrrolo[1,2-c]imidazol-1-yl)acetyl)piperazin-2-one] | 88.6 % of control | 53.1 % of control
5 | Cn1c(CC(=O)N[C@H]2CC[C@H](O)CC2)c2n(c1=S)C[C@@]1(c3cc(Br)ccc3F)C[C@@H]21 [Example 325, 2-((5aS,6aR)-5a-(5-bromo-2-fluorophenyl)-2-methyl-3-thioxo-2,3,5,5a,6,6a-hexahydrocyclopropa[3,4]pyrrolo[1,2-c]imidazol-1-yl)-N-((1r,4R)-4-hydroxycyclohexyl)acetamide] | 34.2 % of control | 3.8 % of control
6 | CN1CCN(C(=O)Cc2c3n(c(=S)n2C)C[C@@]2(c4cc(Cl)ccc4F)C[C@@H]32)CC1 [Example 326, 2-((5aS,6aR)-5a-(5-chloro-2-fluorophenyl)-2-methyl-3-thioxo-2,3,5,5a,6,6a-hexahydrocyclopropa[3,4]pyrrolo[1,2-c]imidazol-1-yl)-1-(4-methylpiperazin-1-yl)ethan-1-one] | 96.6 % of control | 59.5 % of control
7 | Cl.Cn1c(CCNC2CCCC2)c2n(c1=S)C[C@@]1(c3cc(Br)ccc3F)C[C@@H]21 [Example 330, (5aS,6aR)-5a-(5-bromo-2-fluorophenyl)-1-(2-(cyclopentylamino)ethyl)-2-methyl-5,5a,6,6a-tetrahydrocyclopropa[3,4]pyrrolo[1,2-c]imidazole-3(2H)-thione Hydrochloride] | 71.7 % of control | 32.5 % of control
8 | Cl.Cn1c(CCN[C@@H]2CCCOC2)c2n(c1=S)C[C@@]1(c3cc(Br)ccc3F)C[C@@H]21 [Example 331, (5aS,6aR)-5a-(5-bromo-2-fluorophenyl)-2-methyl-1-(2-(((R)-tetrahydro-2H-pyran-3-yl)amino)ethyl)-5,5a,6,6a-tetrahydrocyclopropa[3,4]pyrrolo[1,2-c]imidazole-3(2H)-thione Hydrochloride] | 77.4 % of control | 50.2 % of control
9 | Cl.Cn1c(CCNCC(F)(F)F)c2n(c1=S)C[C@@]1(c3cc(Br)ccc3F)C[C@@H]21 [Example 334, (5aS,6aR)-5a-(5-bromo-2-fluorophenyl)-2-methyl-1-(2-((2,2,2-trifluoroethyl)amino)ethyl)-5,5a,6,6a-tetrahydrocyclopropa[3,4]pyrrolo[1,2-c]imidazole-3(2H)-thione Hydrochloride] | 80.3 % of control | 41.9 % of control

Now from value to molecule:

Row | Plasma (0.01 μM), activity in % of control | Plasma (0.1 μM), activity in % of control | Compound
10 | 49.9 % of control | 7.0 % of control | Cn1c(CC(=O)N[C@@H]2CCCOC2)c2n(c1=S)C[C@H](c1c(F)ccc(Cl)c1F)C2 [Example 327, 2-((S)-6-(3-chloro-2,6-difluorophenyl)-2-methyl-3-thioxo-2,5,6,7-tetrahydro-3H-pyrrolo[1,2-c]imidazol-1-yl)-N—((R)-tetrahydro-2H-pyran-3-yl)acetamide]
11 | 63.1 % of control | 9.4 % of control | Cn1c(CC(=O)NCc2cnccn2)c2n(c1=S)C[C@H](c1c(F)ccc(Cl)c1F)C2 [Example 328, (S)-2-(6-(3-chloro-2,6-difluorophenyl)-2-methyl-3-thioxo-2,5,6,7-tetrahydro-3H-pyrrolo[1,2-c]imidazol-1-yl)-N-(pyrazin-2-ylmethyl)acetamide]
12 | 41.7 % of control | 16.1 % of control | Cn1c(CC(=O)N2CCOCC2)c2n(c1=S)C[C@H](c1c(F)ccc(Cl)c1F)C2 [Example 329, (S)-2-(6-(3-chloro-2,6-difluorophenyl)-2-methyl-3-thioxo-2,5,6,7-tetrahydro-3H-pyrrolo[1,2-c]imidazol-1-yl)-1-morpholinoethan-1-one]
13 | 32.8 % of control | 2.7 % of control | Cl.Cn1c(CC(=O)NCc2ccccn2)c2n(c1=S)C[C@@]1(c3cc(Cl)ccc3F)C[C@@H]21 [Example 332, 2-((5aS,6aR)-5a-(5-chloro-2-fluorophenyl)-2-methyl-3-thioxo-2,3,5,5a,6,6a-hexahydrocyclopropa[3,4]pyrrolo[1,2-c]imidazol-1-yl)-N-(pyridin-2-ylmethyl)acetamide Hydrochloride]
14 | 47.5 % of control | 11.7 % of control | Cn1c(CC(=O)NC2COC2)c2n(c1=S)C[C@H](c1c(F)ccc(Cl)c1F)C2 [Example 333, (S)-2-(6-(3-chloro-2,6-difluorophenyl)-2-methyl-3-thioxo-2,5,6,7-tetrahydro-3H-pyrrolo[1,2-c]imidazol-1-yl)-N-(oxetan-3-yl)acetamide]
15 | 44.9 % of control | 8.7 % of control | Cl.Cn1c(CC(=O)NCc2cnccn2)c2n(c1=S)C[C@@]1(c3cc(Cl)ccc3F)C[C@@H]21 [Example 335, 2-((5aS,6aR)-5a-(5-chloro-2-fluorophenyl)-2-methyl-3-thioxo-2,3,5,5a,6,6a-hexahydrocyclopropa[3,4]pyrrolo[1,2-c]imidazol-1-yl)-N-(pyrazin-2-ylmethyl)acetamide Hydrochloride]
16 | 50.0 % of control | 9.4 % of control | Cn1c(CC(=O)NC[C@@H]2CCCO2)c2n(c1=S)C[C@H](c1c(F)ccc(Cl)c1F)C2 [Example 336, 2-((S)-6-(3-chloro-2,6-difluorophenyl)-2-methyl-3-thioxo-2,5,6,7-tetrahydro-3H-pyrrolo[1,2-c]imidazol-1-yl)-N—(((S)-tetrahydrofuran-2-yl)methyl)acetamide]
